Reference: paper PMC3328449, “Inhibition of Diacylglycerol–Sensitive TRPC Channels by Synthetic and Natural Steroids” (PLoS ONE, 2012)
Values joined by “and” are separate entries in the source; they are usually repeats but may differ in a detail not shown here. Equal entries are not always repeated.

Target: T1, hTRPC6 (Homo sapiens, UniProt Q9Y210)
T1 construct: expressed in transfected cells
T1 sequence (Q9Y210 1-931): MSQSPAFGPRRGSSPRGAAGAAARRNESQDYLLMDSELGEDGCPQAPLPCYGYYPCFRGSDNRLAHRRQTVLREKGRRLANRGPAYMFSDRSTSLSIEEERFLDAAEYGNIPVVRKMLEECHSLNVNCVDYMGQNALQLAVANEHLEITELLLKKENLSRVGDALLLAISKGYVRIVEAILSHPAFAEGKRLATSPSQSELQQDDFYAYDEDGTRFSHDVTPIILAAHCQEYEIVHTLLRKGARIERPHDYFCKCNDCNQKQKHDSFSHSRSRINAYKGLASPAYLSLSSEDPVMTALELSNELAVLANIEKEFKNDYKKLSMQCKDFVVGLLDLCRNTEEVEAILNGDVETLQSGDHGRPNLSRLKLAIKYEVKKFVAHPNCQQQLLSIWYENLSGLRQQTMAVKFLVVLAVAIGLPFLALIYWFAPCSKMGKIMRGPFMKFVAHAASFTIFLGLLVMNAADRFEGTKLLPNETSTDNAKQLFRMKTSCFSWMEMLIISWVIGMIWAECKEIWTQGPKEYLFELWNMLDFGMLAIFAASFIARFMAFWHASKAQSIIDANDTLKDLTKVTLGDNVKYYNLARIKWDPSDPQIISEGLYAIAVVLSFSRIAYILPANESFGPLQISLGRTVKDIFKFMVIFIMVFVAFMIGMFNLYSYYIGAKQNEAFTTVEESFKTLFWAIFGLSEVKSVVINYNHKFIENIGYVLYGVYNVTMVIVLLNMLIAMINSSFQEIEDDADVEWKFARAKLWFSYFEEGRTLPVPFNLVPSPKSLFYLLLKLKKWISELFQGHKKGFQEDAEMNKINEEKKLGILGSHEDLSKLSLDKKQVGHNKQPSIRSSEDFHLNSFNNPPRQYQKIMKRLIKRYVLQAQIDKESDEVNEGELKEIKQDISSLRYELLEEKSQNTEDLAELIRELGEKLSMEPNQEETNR
Assay: Whole-cell patch clamp, AlF4- evoked TRPC6 currents
Assay type: cell-based
Method: Cells were grown at 37°C in a humidified atmosphere (5% or 7% CO2) under standard cell culture conditions. Stable human embryonic kidney (HEK) cell lines expressing recombinant mTRPC4ß (GenBank accession number AAC05178); mTRPC5 (GenBank accession number NM_009428) or hTRPC6 (GenBank accession number AF080394) under the control of a tetracycline-inducible promoter were generated using the Flp-In T-Rex (FITR) system (Invitrogen, Karlsruhe, Germany). TRPC4/5/6 HEK-FITR cells were maintained in Dulbecco's modified eagle medium (DMEM, with glutaMAX I, 4.5 g/l glucose and […] sodium pyruvate) supplemented with 10% (v/v) fetal bovine serum (Biochrom, Berlin, Germany), 1 mM glutamine, 1 mM MEM sodium pyruvate, 40 µg/ml hygromycin (50 µg/ml for mTRPC5 HEK-FITR cells), and 15 µg/ml blasticidine HCl. Channel expression was induced by supplementing the growth medium for 18–24 h with 1 µg/ml doxycycline.
The whole-cell patch clamp technique was employed to measure ion currents from single cells. […]
Cells grown on poly-L-lysine-coated coverslips were continuously superfused with extracellular solution and substances were applied using an ALA BPS-8 perfusion system (ALA Scientific Instruments, Westbury, USA). […] Cells were held at −70 mV, and current-voltage (I–V) relationships were routinely measured every 2 or 3 s by applying voltage ramps (180 ms) from −100 mV to +80 mV. […]
For statistical analysis, analysis of variance was performed with Origin 6.0 software (Microcal Software Inc., Northampton, USA). […] IC50 were calculated with SigmaPlot (Systat software, San Jose, USA) using the sigmoidal Hill-model: f = 100 (C^n/(IC50 ^n+C^n)); where f is the inhibition, C is the applied drug concentration and n is the Hill coefficient. The half maximal effective concentration (EC50) of norgestimate-induced vasorelaxation was calculated analogously with R = y0+y1C^n/(EC50 ^n+C^n); where R is relaxation, yo and y1 are constants, C is the applied drug concentration and n is the Hill coefficient. Averaged data is expressed as means ± SEM.

Inhibition of TRPC6 currents (10 µM, whole-cell patch clamp, AlF4- infusion): almost completely inhibited | Hill slope, TRPC6 current inhibition (fit to dose-response equation): 1.19 | IC50 (whole-cell patch clamp, AlF4- infusion, read-out: IC50, TRPC6 current inhibition): 3.06 µM and ~3 µM
Structure (SMILES): C#C[C@]1(OC(C)=O)CC[C@H]2[C@@H]3CCC4=CC(=NO)CC[C@@H]4[C@H]3CC[C@@]21CC (mixture of isomers) [norgestimate]
